The source of these data is patent US20090030024A1, “THIAZOLES AS FUNGICIDES” (priority 2005, published 2009).

A word on the chromatographic logP: it is a lipophilicity value derived from retention on a column.

The data set is described as follows: logP determination by retention times (calibration with alkan-2-ones).

SMILES strings stand for the structures. Like-named read-outs stand apart in the source and are kept apart here.

`Cc1nc(N)sc1-c1ccnc(Nc2cccc(Cl)c2)n1` [Example 204, 4-(2-amino-4-methyl-1,3-thiazol-5-yl)-N-(3-chlorophenyl)pyrimidine-2-amine] yielded a chromatographic logP of 1.78.

`Cc1nc(N)sc1-c1ccnc(Nc2cccc([N+](=O)[O-])c2)n1` [Example 206, 4-(2-amino-4-methyl-1,3-thiazol-5-yl)-N-(3-nitrophenyl)pyrimidine-2-amine] came in with a chromatographic logP of 1.5.

In turn, `Cc1cc(Nc2nccc(-c3sc(N)nc3C)n2)ccc1F` [Example 207, 4-(2-amino-4-methyl-1,3-thiazol-5-yl)-N-(4-fluoro-3-methylphenyl)pyrimidine-2-amine] had a chromatographic logP of 1.68.

As for `Cc1nc(N)sc1-c1ccnc(Nc2ccc(F)cc2)n1` [Example 208, 4-(2-amino-4-methyl-1,3-thiazol-5-yl)-N-(4-fluorophenyl)pyrimidine-2-amine], the chromatographic logP worked out at 1.56.

In turn, `Cc1nc(N)sc1-c1ccnc(Nc2cccc(C(F)(F)F)c2)n1` [Example 209, 4-(2-amino-4-methyl-1,3-thiazol-5-yl)-N-[3-(trifluoromethyl)phenyl]pyrimidine-2-amine] displayed a chromatographic logP of 1.97.

In turn, `COc1cc(Nc2nccc(-c3sc(C4CCCCC4)nc3C)n2)cc(OC)c1OC` [Example 215, 4-(2-cyclohexyl-4-methyl-1,3-thiazol-5-yl)-N-(3,4,5-trimethoxyphenyl)pyrimidine-2-amine] had a chromatographic logP of 3.97.

Turning to `Cc1nc(C2CCCCC2)sc1-c1ccnc(Nc2cccc([N+](=O)[O-])c2)n1` [Example 216, 4-(2-cyclohexyl-4-methyl-1,3-thiazol-5-yl)-N-(3-nitrophenyl)pyrimidine-2-amine], the chromatographic logP amounted to 4.63. Under “logP(HCOOH), HCOOH”, this molecule gave a chromatographic logP of 4.63.

`COc1ccc(Nc2nccc(-c3sc(C4CCCCC4)nc3C)n2)cn1` [Example 217, 4-(2-cyclohexyl-4-methyl-1,3-thiazol-5-yl)-N-(6-methoxypyridin-3-yl)pyrimidine-2-amine] registered a chromatographic logP of 3.86.

As to `Cc1nc(C2CCCCC2)sc1-c1ccnc(Nc2ccc(C(F)(F)F)cc2)n1` [Example 218, 4-(2-cyclohexyl-4-methyl-1,3-thiazol-5-yl)-N-[4-(trifluoromethyl)phenyl]pyrimidine-2-amine], the chromatographic logP worked out at 5.62.

Turning to `Cc1nc(C2CCCCC2)sc1-c1ccnc(Nc2ccccc2)n1` [Example 219, 4-(2-cyclohexyl-4-methyl-1,3-thiazol-5-yl)-N-phenylpyrimidine-2-amine], the chromatographic logP turned out to be 4.65.

In turn, `Cc1nc(C2CC2)sc1-c1ccnc(Nc2ccc3c(c2)OCCO3)n1` [Example 220, 4-(2-cyclopropyl-4-methyl-1,3-thiazol-5-yl)-N-(2,3-dihydro-1,4-benzodioxin-6-yl)pyrimidine-2-amine] had a chromatographic logP of 2.91.

The molecule `COc1ccc(OC)c(Nc2nccc(-c3sc(C4CC4)nc3C)n2)c1` [Example 221, 4-(2-cyclopropyl-4-methyl-1,3-thiazol-5-yl)-N-(2,5-dimethoxyphenyl)pyrimidine-2-amine] returned a chromatographic logP of 3.71.

As for `COc1ccc(Nc2nccc(-c3sc(C4CC4)nc3C)n2)cc1OC` [Example 223, 4-(2-cyclopropyl-4-methyl-1,3-thiazol-5-yl)-N-(3,4-dimethoxyphenyl)pyrimidine-2-amine], the chromatographic logP was 2.6.

The molecule `COc1cccc(Nc2nccc(-c3sc(C4CC4)nc3C)n2)c1` [Example 224, 4-(2-cyclopropyl-4-methyl-1,3-thiazol-5-yl)-N-(3-methoxyphenyl)pyrimidine-2-amine] yielded a chromatographic logP of 3.28.

For `Cc1nc(C2CC2)sc1-c1ccnc(Nc2cccc([N+](=O)[O-])c2)n1` [Example 225, 4-(2-cyclopropyl-4-methyl-1,3-thiazol-5-yl)-N-(3-nitrophenyl)pyrimidine-2-amine], the chromatographic logP worked out at 3.29.

Consider `Cc1cc(Nc2nccc(-c3sc(C4CC4)nc3C)n2)ccc1F` [Example 226, 4-(2-cyclopropyl-4-methyl-1,3-thiazol-5-yl)-N-(4-fluoro-3-methylphenyl)pyrimidine-2-amine], for which the chromatographic logP turned out to be 3.71.

For the molecule `Cc1nc(C2CC2)sc1-c1ccnc(Nc2ccc(F)cc2)n1` [Example 227, 4-(2-cyclopropyl-4-methyl-1,3-thiazol-5-yl)-N-(4-fluorophenyl)pyrimidine-2-amine], the chromatographic logP is 3.31.

`COc1ccc(Nc2nccc(-c3sc(C4CC4)nc3C)n2)cn1` [Example 228, 4-(2-cyclopropyl-4-methyl-1,3-thiazol-5-yl)-N-(6-methoxypyridin-3-yl)pyrimidine-2-amine] had a chromatographic logP of 2.53.

Consider `Cc1nc(C2CC2)sc1-c1ccnc(Nc2cccc(C(F)(F)F)c2)n1` [Example 229, 4-(2-cyclopropyl-4-methyl-1,3-thiazol-5-yl)-N-[3-(trifluoromethyl)phenyl]pyrimidine-2-amine], for which the chromatographic logP is 4.04.

Consider `Cc1nc(C2CC2)sc1-c1ccnc(Nc2ccc(C(F)(F)F)cc2)n1` [Example 230, 4-(2-cyclopropyl-4-methyl-1,3-thiazol-5-yl)-N-[4-(trifluoromethyl)phenyl]pyrimidine-2-amine], for which the chromatographic logP turned out to be 4.2.

In turn, `Cc1nc(C2CC2)sc1-c1ccnc(Nc2ccccc2)n1` [Example 231, 4-(2-cyclopropyl-4-methyl-1,3-thiazol-5-yl)-N-phenylpyrimidine-2-amine] showed a chromatographic logP of 3.26.

`CCc1nc(C)c(-c2ccnc(Nc3cccc(OC)c3)n2)s1` [Example 236, 4-(2-ethyl-4-methyl-1,3-thiazol-5-yl)-N-(3-methoxyphenyl)pyrimidine-2-amine] had a chromatographic logP of 3.

For `CCc1nc(C)c(-c2ccnc(Nc3cccc([N+](=O)[O-])c3)n2)s1` [Example 237, 4-(2-ethyl-4-methyl-1,3-thiazol-5-yl)-N-(3-nitrophenyl)pyrimidine-2-amine], the chromatographic logP was found to be 3.14.

Consider `CCc1nc(C)c(-c2ccnc(Nc3cccc(C(F)(F)F)c3)n2)s1` [Example 241, 4-(2-ethyl-4-methyl-1,3-thiazol-5-yl)-N-[3-(trifluoromethyl)phenyl]pyrimidine-2-amine], for which the chromatographic logP is 3.85.

On to `COc1cccc(Nc2nccc(-c3sc(C(C)C)nc3C)n2)c1` [Example 245, 4-(2-isopropyl-4-methyl-1,3-thiazol-5-yl)-N-(3-methoxyphenyl)pyrimidine-2-amine], for which the chromatographic logP was 3.5.

As to `Cc1nc(C(C)C)sc1-c1ccnc(Nc2cccc([N+](=O)[O-])c2)n1` [Example 246, 4-(2-isopropyl-4-methyl-1,3-thiazol-5-yl)-N-(3-nitrophenyl)pyrimidine-2-amine], the chromatographic logP was 3.55.

The molecule `Cc1nc(C(C)C)sc1-c1ccnc(Nc2cccc(C(F)(F)F)c2)n1` [Example 248, 4-(2-isopropyl-4-methyl-1,3-thiazol-5-yl)-N-[3-(trifluoromethyl)phenyl]pyrimidine-2-amine] gave a chromatographic logP of 4.3.

Consider `Cc1nc(C(C)C)sc1-c1ccnc(Nc2ccc(N3CCN(C)CC3)cc2)n1` [Example 249, 4-(2-isopropyl-4-methyl-1,3-thiazol-5-yl)-N-[4-(4-methylpiperazin-1-yl)phenyl]pyrimidine-2-amine], for which the chromatographic logP stood at 1.71.
